In patent US9125913B2, “Bcl-2-selective apoptosis-inducing agents for the treatment of cancer and immune diseases” (AbbVie Inc., priority 2008, dated 2015):

System: GST-Bcl-2
Experiment: TR-FRET binding assay, Bcl-2
Settings: TR-FRET Ki values
Summary of the method: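 Compounds serially diluted in DMSO from 50 μM (2× starting concentration, 10% DMSO), mixed with GST-tagged protein, F-Bak peptide probe and Tb-labeled antibody, incubated 3 h at room temperature.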

SMILES | Binding selectivity ratio (Bcl-XL Ki/Bcl-2 Ki)
CC1(C)CCC(CN2CCN(c3ccc(C(=O)NS(=O)(=O)c4ccc(NCC5CN(C6COC6)CCO5)c([N+](=O)[O-])c4)c(Oc4cccc5[nH]cnc45)c3)CC2)=C(c2ccc(Cl)cc2)C1 (centres unmarked) [EXAMPLE 433, 2-(1H-benzimidazol-4-yloxy)-4-(4-{[2-(4-chlorophenyl)-4,4-dimethylcyclohex-1-en-1-yl]methyl}piperazin-1-yl)-N-[(3-nitro-4-{[(4-oxetan-3-ylmorpholin-2-yl)methyl]amino}phenyl)sulfonyl]benzamide] | 228.55
COc1ccc(S(=O)(=O)NC(=O)c2ccc(N3CCN(Cc4ccccc4-c4ccc(Cl)cc4)CC3)cc2Oc2ccccc2)cc1 [Example 60, 4-{4-[(4′-chloro-1,1′-biphenyl-2-yl)methyl]piperazin-1-yl}-N-[(4-methoxyphenyl)sulfonyl]-2-phenoxybenzamide] | >34.9
O=C(NS(=O)(=O)c1ccc(NCC2CCOCC2)c(S(=O)(=O)C(F)(F)F)c1)c1ccc(N2CCN(Cc3cc(OCCN4CCOCC4)ccc3-c3ccc(Cl)cc3)CC2)cc1Oc1ccccc1 [Example 117, 4-(4-{[4′-chloro-4-(2-morpholin-4-ylethoxy)-1,1′-biphenyl-2-yl]methyl}piperazin-1-yl)-2-phenoxy-N-({4-[(tetrahydro-2H-pyran-4-ylmethyl)amino]-3-[(trifluoromethyl)sulfonyl]phenyl}sulfonyl)benzamide] | >287.1
CC1(C)CCC(CN2CCN(c3ccc(C(=O)NS(=O)(=O)c4ccc(NC5CCN(CCO)CC5)c([N+](=O)[O-])c4)c(Oc4cccc5[nH]ccc45)c3)CC2)=C(c2ccc(Cl)cc2)C1 [EXAMPLE 191, 4-(4-{[2-(4-chlorophenyl)-4,4-dimethylcyclohex-1-en-1-yl]methyl}piperazin-1-yl)-N-[(4-{[1-(2-hydroxyethyl)piperidin-4-yl]amino}-3-nitrophenyl)sulfonyl]-2-(1H-indol-4-yloxy)benzamide] | 125.2
CC1(C)CCC(CN2CCN(c3ccc(C(=O)NS(=O)(=O)c4ccc(N[C@@H]5CCN(CC#N)C5)c([N+](=O)[O-])c4)c(Oc4cccc5[nH]cnc45)c3)CC2)=C(c2ccc(Cl)cc2)C1 [EXAMPLE 428, 2-(1H-benzimidazol-4-yloxy)-4-(4-{[2-(4-chlorophenyl)-4,4-dimethylcyclohex-1-en-1-yl]methyl}piperazin-1-yl)-N-[(4-{[(3R)-1-(cyanomethyl)pyrrolidin-3-yl]amino}-3-nitrophenyl)sulfonyl]benzamide] | 5832
COCCNc1ccc(S(=O)(=O)NC(=O)c2ccc(N3CCN(CC4=C(c5ccc(Cl)cc5)CC(C)(C)CC4)CC3)cc2Oc2ccc3[nH]ccc3c2)cc1S(=O)(=O)C(F)(F)F [EXAMPLE 315, 4-(4-{[2-(4-chlorophenyl)-4,4-dimethylcyclohex-1-en-1-yl]methyl}piperazin-1-yl)-2-(1H-indol-5-yloxy)-N-({4-[(2-methoxyethyl)amino]-3-[(trifluoromethyl)sulfonyl]phenyl}sulfonyl)benzamide] | >190.7
CC1(C)CCC(CN2CCN(c3ccc(C(=O)NS(=O)(=O)c4cnc(OCC5CCOCC5)c(Cl)c4)c(Oc4cccc5[nH]ncc45)c3)CC2)=C(c2ccc(Cl)cc2)C1 [EXAMPLE 427, 4-(4-{[2-(4-chlorophenyl)-4,4-dimethylcyclohex-1-en-1-yl]methyl}piperazin-1-yl)-N-{[5-chloro-6-(tetrahydro-2H-pyran-4-ylmethoxy)pyridin-3-yl]sulfonyl}-2-(1H-indazol-4-yloxy)benzamide] | 34408.55031
CN(C)CCCNc1ccc(S(=O)(=O)NC(=O)c2ccc(N3CCN(Cc4ccccc4-c4ccc(Cl)cc4)CC3)cc2Oc2ccccc2)cc1C#N [Example 90, 4-{4-[(4′-chloro-1,1′-biphenyl-2-yl)methyl]piperazin-1-yl}-N-[(3-cyano-4-{[3-(dimethylamino)propyl]amino}phenyl)sulfonyl]-2-phenoxybenzamide] | 133
CC1(C)CCC(CN2CCN(c3ccc(C(=O)NS(=O)(=O)c4cnc(OCC5CCOCC5)c(C#N)c4)c(Oc4ccc5[nH]ccc5c4)c3)CC2)=C(c2ccc(Cl)cc2)C1 [EXAMPLE 333, 4-(4-{[2-(4-chlorophenyl)-4,4-dimethylcyclohex-1-en-1-yl]methyl}piperazin-1-yl)-N-{[5-cyano-6-(tetrahydro-2H-pyran-4-ylmethoxy)pyridin-3-yl]sulfonyl}-2-(1H-indol-5-yloxy)benzamide] | >7415.7
CN1CCN(Nc2ccc(S(=O)(=O)NC(=O)c3ccc(N4CCN(CC5=C(c6ccc(Cl)cc6)CCC(O)C5)CC4)cc3Oc3ccc4[nH]ccc4c3)cc2[N+](=O)[O-])CC1 (centres unmarked) [EXAMPLE 226, 4-(4-{[2-(4-chlorophenyl)-5-hydroxycyclohex-1-en-1-yl]methyl}piperazin-1-yl)-2-(1H-indol-5-yloxy)-N-({4-[(4-methylpiperazin-1-yl)amino]-3-nitrophenyl}sulfonyl)benzamide] | 577.7
CN(C)CC(=O)N1CCO[C@@H](COc2ncc(S(=O)(=O)NC(=O)c3ccc(N4CCN(CC5=C(c6ccc(Cl)cc6)CC(C)(C)CC5)CC4)cc3Oc3cccc4[nH]ncc34)cc2Cl)C1 [compound 426, N-[(5-chloro-6-{[(2R)-4-(N,N-dimethylglycyl)morpholin-2-yl]methoxy}pyridin-3-yl)sulfonyl]-4-(4-{[2-(4-chlorophenyl)-4,4-dimethylcyclohex-1-en-1-yl]methyl}piperazin-1-yl)-2-(1H-indazol-4-yloxy)benzamide] | 604.2
CC(c1ccccc1-c1ccc(Cl)cc1)N1CCN(c2ccc(C(=O)NS(=O)(=O)c3ccc(NCC4CCOCC4)c([N+](=O)[O-])c3)c(Oc3cccc4[nH]ccc34)c2)CC1 (centres unmarked) [Example 175, 4-{4-[1-(4′-chloro-1,1′-biphenyl-2-yl)ethyl]piperazin-1-yl}-2-(1H-indol-4-yloxy)-N-({3-nitro-4-[(tetrahydro-2H-pyran-4-ylmethyl)amino]phenyl}sulfonyl)benzamide] | >6600
CC1(C)CCC(CN2CCN(c3ccc(C(=O)NS(=O)(=O)c4ccc(OCC5(F)CCOCC5)c([N+](=O)[O-])c4)c(Oc4cccc5[nH]ccc45)c3)CC2)=C(c2ccc(Cl)cc2)C1 [EXAMPLE 306, 4-(4-{[2-(4-chlorophenyl)-4,4-dimethylcyclohex-1-en-1-yl]methyl}piperazin-1-yl)-N-({4-[(4-fluorotetrahydro-2H-pyran-4-yl)methoxy]-3-nitrophenyl}sulfonyl)-2-(1H-indol-4-yloxy)benzamide] | 622
CC1(C)CCC(CN2CCN(c3ccc(C(=O)NS(=O)(=O)c4cnc(OCC5(F)CCOCC5)c(C#N)c4)c(Oc4ccc5[nH]ccc5c4)c3)CC2)=C(c2ccc(Cl)cc2)C1 [EXAMPLE 385, 4-(4-{[2-(4-chlorophenyl)-4,4-dimethylcyclohex-1-en-1-yl]methyl}piperazin-1-yl)-N-({5-cyano-6-[(4-fluorotetrahydro-2H-pyran-4-yl)methoxy]pyridin-3-yl}sulfonyl)-2-(1H-indol-5-yloxy)benzamide] | 2096.5
CC1(C)CCC(CN2CCN(c3ccc(C(=O)NS(=O)(=O)c4ccc(NC5CCS(=O)(=O)C5)c([N+](=O)[O-])c4)c(Oc4cccc5[nH]ccc45)c3)CC2)=C(c2ccc(Cl)cc2)C1 (centres unmarked) [EXAMPLE 299, 4-(4-{[2-(4-chlorophenyl)-4,4-dimethylcyclohex-1-en-1-yl]methyl}piperazin-1-yl)-N-({4-[(1,1-dioxidotetrahydrothien-3-yl)amino]-3-nitrophenyl}sulfonyl)-2-(1H-indol-4-yloxy)benzamide] | 577.7
CC1(C)CCC(CN2CCN(c3ccc(C(=O)NS(=O)(=O)c4ccc(OCC5CCOCC5)c(C(N)=O)c4)c(Oc4ccc5[nH]ccc5c4)c3)CC2)=C(c2ccc(Cl)cc2)C1 [EXAMPLE 357, N-{[3-(aminocarbonyl)-4-(tetrahydro-2H-pyran-4-ylmethoxy)phenyl]sulfonyl}-4-(4-{[2-(4-chlorophenyl)-4,4-dimethylcyclohex-1-en-1-yl]methyl}piperazin-1-yl)-2-(1H-indol-5-yloxy)benzamide] | >493.9
O=C(NS(=O)(=O)c1ccc(NCC2CCOCC2)c([N+](=O)[O-])c1)c1ccc(N2CCN(Cc3cc(N4CCOCC4)ccc3-c3ccc(Cl)cc3)CC2)cc1Oc1cccc2[nH]ccc12 [EXAMPLE 198, 4-{4-[(4′-chloro-4-morpholin-4-yl-1,1′-biphenyl-2-yl)methyl]piperazin-1-yl}-2-(1H-indol-4-yloxy)-N-({3-nitro-4-[(tetrahydro-2H-pyran-4-ylmethyl)amino]phenyl}sulfonyl)benzamide] | >166.4
CC1(C)CC(c2ccc(Cl)cc2)=C(CN2CCN(c3ccc(C(=O)NS(=O)(=O)c4cnc(OCC5(F)CCOCC5)c(Cl)c4)c(Oc4cccc5[nH]ncc45)c3)CC2)CO1 [EXAMPLE 465, N-({5-chloro-6-[(4-fluorotetrahydro-2H-pyran-4-yl)methoxy]pyridin-3-yl}sulfonyl)-4-(4-{[4-(4-chlorophenyl)-6,6-dimethyl-5,6-dihydro-2H-pyran-3-yl]methyl}piperazin-1-yl)-2-(1H-indazol-4-yloxy)benzamide] | 1472
CC1(C)CCC(c2ccc(Cl)cc2)=C(CN2CCN(c3ccc(C(=O)NS(=O)(=O)c4ccc(NCCCN5CCOCC5)c([N+](=O)[O-])c4)c(Oc4ccc5[nH]ccc5c4)c3)CC2)C1 [Example 50, 4-(4-{[2-(4-chlorophenyl)-5,5-dimethylcyclohex-1-en-1-yl]methyl}piperazin-1-yl)-2-(1H-indol-5-yloxy)-N-({4-[(3-morpholin-4-ylpropyl)amino]-3-nitrophenyl}sulfonyl)benzamide] | 191.2
O=C(NS(=O)(=O)c1ccc(NCC2CCOCC2)c([N+](=O)[O-])c1)c1ccc(N2CCN(CC3=C(c4ccc(Cl)cc4)CCN(CCCO)C3)CC2)cc1Oc1cccc2[nH]ccc12 [EXAMPLE 355, 4-(4-{[4-(4-chlorophenyl)-1-(3-hydroxypropyl)-1,2,5,6-tetrahydropyridin-3-yl]methyl}piperazin-1-yl)-2-(1H-indol-4-yloxy)-N-({3-nitro-4-[(tetrahydro-2H-pyran-4-ylmethyl)amino]phenyl}sulfonyl)benzamide] | >5489.5
